Like-named read-outs stand apart in the source and are kept apart here.
Key:
Insulin Receptor Kinase = Insulin Receptor Kinase (Homo sapiens, UniProt P06213); experiment: Kinase Selectivity Assay Insulin Receptor Kinase; assay type: biochemical; settings: Kinase Selectivity, Tables 2a-2k; read-out: Insulin R Kinase IC50
How it was run: (§1)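 Inhibition was measured as reduced ^33P-γ-ATP labelling of a biotinylated peptide substrate immobilized on streptavidin plates after one hour at 30° C.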

Protein Kinase A = molecular target: T1, Protein Kinase A (Bos taurus, UniProt P00517); experiment: Kinase Selectivity Assay Protein Kinase A; assay type: biochemical, bovine; settings: Kinase Selectivity, Tables 2a-2k; read-out: PKA IC50
T1 construct: purified from bovine heart; purchased Upstate Biotech 14-114; host or cells: bovine heart
How it was run: as §1

[1] = molecular target: T2, Casein Kinase 1 (CK1 delta isoform) (Rattus norvegicus, UniProt Q06486); experiment: Kinase Selectivity Assay Casein Kinase 1; assay type: biochemical; settings: Tables 2a-2k, read-out: Caseine Kinase 1 IC50
T2 construct: a truncation at amino acid 318 of the C-terminal portion of the rat CK1 delta isoform; purchased New England Biolabs 6030; host or cells: E. coli
T2 sequence (Q06486 1-317): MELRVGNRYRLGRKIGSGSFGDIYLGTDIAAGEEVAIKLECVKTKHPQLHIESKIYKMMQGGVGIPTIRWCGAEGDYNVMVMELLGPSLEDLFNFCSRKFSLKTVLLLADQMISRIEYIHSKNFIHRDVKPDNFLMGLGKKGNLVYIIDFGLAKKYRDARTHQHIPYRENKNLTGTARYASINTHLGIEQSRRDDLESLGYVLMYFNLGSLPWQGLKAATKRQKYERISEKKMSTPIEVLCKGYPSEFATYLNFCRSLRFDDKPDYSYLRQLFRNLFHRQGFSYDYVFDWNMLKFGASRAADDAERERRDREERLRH
Procedure: (§2) Assays to test compound inhibition of other kinases were preformed using methods that measure the amount of phosphorylation of a biotinylated peptide substrate. Biotinylated peptide substrates were selected from the literature as appropriate for the enzyme being evaluated. […] Assay conditions vary slightly for each protein kinase, for example, insulin receptor kinase requires 10 mM MnCl2 for activity and Calmodulin-dependent protein kinase requires calmodulin and 10 mM CaCl2. These assay conditions are known in the art. The reaction mixture was dispensed into the wells of a streptavidin coated Flashplate and 1 μl drug stock in 100% DMSO was added to a 100 μl reaction volume resulting in a final concentration of 1% DMSO on the reaction. Enzyme was diluted in 50 mM Tris-HCl pH=8.0, 0.1% BSA and add to each well. The reaction was incubated for one hour at 30° C. in the presence of compound. After one hour the reaction mix was aspirated from the plate and the plate was washed with PBS containing 100 mM EDTA. The plate was read on a scintillation counter to determine ^33P-γ-ATP incorporated into the immobilized peptide. Test compounds were assayed in duplicate at 8 concentrations [100 uM, 10 uM, 1 uM, 100 nM, 10 nM, 1 nM, 100 pM, 10 pM]. A maximum and minimum signal for the assay was determined on each plate. The IC50 was calculated from the dose response curve of the percent inhibition of the maximum signal in the assay according to the formula [max signal—background/test compound signal—background (100)=% inhibition] by graphing the percent inhibition against the log concentration of test compound. Known inhibitor compounds appropriate for the kinase being assayed were also included on each plate.
CDK2 in complex with cyclin A is commercially available (Upstate Biotech, Lake Placid, N.Y.). The CDK4 complex was composed of a mouse CDK4 protein and a mouse Cyclin D1 protein (The mouse CDK4 protein was genetically fused to an N-terminal Flag-epitope tag and the mouse Cyclin D1 protein was fused with an N-terminal AU-1 epitope tag. The genes encoding these proteins were transferred to commercially available baculoviral vectors. The recombinant CDK4/D1 complex was then made by co-infecting commercially available insect cells with viruses carrying these two constructs). […] ERK-1 protein (Discontinued from Calbiochem). EGFR (epidermal growth factor receptor) is purified from human A431 cell membranes (Sigma, St. Louis, Mo., Cat.# E3641).

[2] = molecular target: T3, Casein Kinase 2 (alpha and beta subunits) (Homo sapiens, UniProt P68400); experiment: Kinase Selectivity Assay Casein Kinase 2; assay type: biochemical; settings: Kinase Selectivity, Tables 2a-2k; read-out: Caseine Kinase 2 IC50
T3 construct: purchased New England Biolabs 6010; host or cells: E. coli
T3 sequence (P68400 whole entry): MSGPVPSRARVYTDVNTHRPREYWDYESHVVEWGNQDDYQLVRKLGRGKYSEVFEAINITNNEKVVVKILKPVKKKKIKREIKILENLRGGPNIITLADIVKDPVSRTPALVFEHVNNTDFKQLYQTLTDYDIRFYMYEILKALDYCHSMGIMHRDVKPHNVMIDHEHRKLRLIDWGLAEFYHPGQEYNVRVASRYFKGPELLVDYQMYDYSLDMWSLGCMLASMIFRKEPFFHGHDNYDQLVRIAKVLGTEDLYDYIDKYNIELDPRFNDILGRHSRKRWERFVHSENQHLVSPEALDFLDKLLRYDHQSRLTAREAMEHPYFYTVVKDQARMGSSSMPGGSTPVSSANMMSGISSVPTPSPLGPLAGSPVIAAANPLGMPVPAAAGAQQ
T3 sequence (P67870 whole entry partner): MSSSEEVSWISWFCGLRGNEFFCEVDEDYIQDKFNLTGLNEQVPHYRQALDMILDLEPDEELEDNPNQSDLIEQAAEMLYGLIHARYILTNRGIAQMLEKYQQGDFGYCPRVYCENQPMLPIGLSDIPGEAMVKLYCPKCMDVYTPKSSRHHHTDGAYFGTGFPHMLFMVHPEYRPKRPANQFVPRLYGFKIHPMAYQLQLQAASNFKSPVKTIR
How it was run: as §1

[3] = molecular target: T4, Calmodulin Kinase (calmodulin-dependent protein kinase 2) (Rattus norvegicus, UniProt P11275); experiment: Kinase Selectivity Assay Calmodulin Kinase; assay type: biochemical; settings: Kinase Selectivity, Tables 2a-2k; read-out: Calmodulin Kinase 2 IC50
T4 construct: a truncated version of the alpha subunit of the rat protein; purchased New England Biolabs 6060; host or cells: insect cells
How it was run: as §1

[4] = molecular target: T5, Glycogen Synthase Kinase-3 (beta isoform) (Oryctolagus cuniculus, UniProt G1T8E2); experiment: Kinase Selectivity Assay Glycogen Synthase Kinase-3; assay type: biochemical, rabbit; settings: Kinase Selectivity, Tables 2a-2k; read-out: GSK-3 IC50
T5 construct: purchased New England Biolabs 6040; host or cells: E. coli
T5 sequence (G1T8E2 1-432): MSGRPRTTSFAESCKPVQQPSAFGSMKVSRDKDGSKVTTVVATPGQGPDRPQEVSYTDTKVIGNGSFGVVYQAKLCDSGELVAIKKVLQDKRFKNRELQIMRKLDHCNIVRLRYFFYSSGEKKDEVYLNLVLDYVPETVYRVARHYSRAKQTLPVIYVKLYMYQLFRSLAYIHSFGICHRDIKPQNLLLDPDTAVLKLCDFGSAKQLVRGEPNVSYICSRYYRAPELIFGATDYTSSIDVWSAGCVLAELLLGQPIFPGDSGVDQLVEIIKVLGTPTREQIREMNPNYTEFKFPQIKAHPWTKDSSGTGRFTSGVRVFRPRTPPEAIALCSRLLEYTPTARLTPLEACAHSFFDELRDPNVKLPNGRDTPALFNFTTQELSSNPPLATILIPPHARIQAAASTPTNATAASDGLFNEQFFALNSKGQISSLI
How it was run: as §1

[5] = molecular target: T6, MAP Kinase (ERK-2 isoform) (Rattus norvegicus, UniProt P63086); experiment: Kinase Selectivity Assay MAP Kinase (ERK-2); assay type: biochemical; settings: Kinase Selectivity, Tables 2a-2k; read-out: ERK 2 IC50
T6 construct: polyhistidine (N); host or cells: E. coli
T6 sequence (P63086 whole entry, canonical isoform): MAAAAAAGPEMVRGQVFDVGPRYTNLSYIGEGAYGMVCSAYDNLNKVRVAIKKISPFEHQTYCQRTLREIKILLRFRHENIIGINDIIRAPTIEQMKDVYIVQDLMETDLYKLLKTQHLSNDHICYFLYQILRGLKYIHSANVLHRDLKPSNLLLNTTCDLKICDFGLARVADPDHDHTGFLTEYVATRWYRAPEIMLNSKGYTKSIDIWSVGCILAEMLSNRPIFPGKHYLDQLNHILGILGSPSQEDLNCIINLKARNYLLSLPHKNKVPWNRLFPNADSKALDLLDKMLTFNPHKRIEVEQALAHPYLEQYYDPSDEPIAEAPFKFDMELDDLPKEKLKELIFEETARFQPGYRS
How it was run: as §1

[6] = molecular target: T7, PDGF-R (platelet derived growth factor receptor) beta subunit kinase domain (Homo sapiens, UniProt P09619); experiment: Kinase Selectivity Assay PDGF-R; assay type: biochemical; settings: Kinase Selectivity, Tables 2a-2k; read-out: PDGF-R kinase IC50
T7 construct: nucleotides 1874-3507 of the human PDGF-R beta subunit kinase domain; polyhistidine (N)
T7 sequence (P09619 564-1106): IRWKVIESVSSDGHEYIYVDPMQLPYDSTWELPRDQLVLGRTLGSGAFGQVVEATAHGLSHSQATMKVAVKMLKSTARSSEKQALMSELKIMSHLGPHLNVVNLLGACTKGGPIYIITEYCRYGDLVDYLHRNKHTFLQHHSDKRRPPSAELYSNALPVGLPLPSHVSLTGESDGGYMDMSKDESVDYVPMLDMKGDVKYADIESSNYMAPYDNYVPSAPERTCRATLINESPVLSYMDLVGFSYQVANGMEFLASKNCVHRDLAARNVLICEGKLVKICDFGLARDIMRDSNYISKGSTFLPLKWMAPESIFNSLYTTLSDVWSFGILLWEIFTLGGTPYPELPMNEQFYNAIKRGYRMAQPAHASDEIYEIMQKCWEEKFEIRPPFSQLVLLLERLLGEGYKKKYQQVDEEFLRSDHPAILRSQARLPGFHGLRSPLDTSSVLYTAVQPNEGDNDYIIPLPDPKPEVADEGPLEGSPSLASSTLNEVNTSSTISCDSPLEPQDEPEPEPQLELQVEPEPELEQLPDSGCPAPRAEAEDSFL
How it was run: as §1

[7] = molecular target: T8, HER2 (human epidermal growth factor receptor-2) (Homo sapiens, UniProt P04626); experiment: Kinase Selectivity Assay HER2; assay type: biochemical
T8 construct: begins at amino acid 676 followed by the remainder of the HER2 cytoplasmic domain; polyhistidine (N)
T8 sequence (P04626 676-1255 limits assumed): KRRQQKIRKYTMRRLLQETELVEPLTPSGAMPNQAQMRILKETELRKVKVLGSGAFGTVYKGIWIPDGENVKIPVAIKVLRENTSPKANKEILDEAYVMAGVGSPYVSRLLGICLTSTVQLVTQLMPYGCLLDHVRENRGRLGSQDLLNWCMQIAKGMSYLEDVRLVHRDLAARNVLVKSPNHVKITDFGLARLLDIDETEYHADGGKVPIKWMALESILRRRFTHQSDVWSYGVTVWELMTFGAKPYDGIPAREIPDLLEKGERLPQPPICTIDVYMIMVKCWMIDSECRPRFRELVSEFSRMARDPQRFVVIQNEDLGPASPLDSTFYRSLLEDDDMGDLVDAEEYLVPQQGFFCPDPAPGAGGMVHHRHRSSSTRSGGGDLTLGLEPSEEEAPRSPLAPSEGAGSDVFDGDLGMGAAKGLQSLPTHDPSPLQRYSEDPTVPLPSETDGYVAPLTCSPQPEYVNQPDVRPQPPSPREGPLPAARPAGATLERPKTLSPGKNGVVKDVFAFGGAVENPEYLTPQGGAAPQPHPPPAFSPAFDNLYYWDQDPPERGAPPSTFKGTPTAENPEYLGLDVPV
How it was run: as §1

[8] = system: HeLa cervical adenocarcinoma; experiment: Inhibition of Cell Proliferation (14C-thymidine incorporation), HeLa; assay type: cell-based; settings: Homo sapiens, HeLa cell line
Procedure: (§3) The ability of a test compound to inhibit the proliferation of cell growth was determined by measuring incorporation of ^14C-labelled thymidine into newly synthesized DNA within the cells. This method was used on cell lines derived from carcinomas originating from several tissues such as HeLa cervical adenocarcinoma (American Type Culture Collection (ATCC), Virginia, Cat. #CCL-2), A375 malignant melanoma (ATCC CRL-1619), SK-OV-3 ovarian adenocarcinoma (ATCC HTB-77) HCT-116 colon carcinoma (CCL-247), PC-3 prostate adenocarcinoma (ATCC CRL-1435), and MDA-MB-231 (Xenogen Corp.) In this way the effect of a compound on cell growth of cells with many different phenotypes can be determined. Cells were trypsinized and counted and 3000-8000 cells were added to each well of a 96-well CytoStar tissue culture treated scintillating microplate (Amersham #RPNQ0160) in complete medium in a volume of 100 μl. Cells were incubated for 24 hours in complete medium at 37° C. in an atmosphere containing 5% CO2. Next, 1 μl of test compound in 100% DMSO was added to the wells of the plate. DMSO only was added to control wells. Cells were incubated for 24 more hours in complete medium at 37° C. in an atmosphere containing 5% CO2. Methyl ^14C-thymidine 56 mCi/mmol (NEN #NEC568 or Amersham #CFA532) was diluted in complete medium and 0.2 uCi/well was added to each well of the CytoStar plate in a volume of 20 μl. The plate was incubated for 24 hours at 37° C. plus 5% CO2 in drug plus ^14C-thymidine. The contents of the plate were discarded into a ^14C radioactive waste container by inverting the plate and the plate was washed twice with 200 μl PBS. 200 μl of PBS is added to each well. The top of the plate was sealed with a transparent plate sealer and a white plate backing sealer (Packard #6005199) was applied to the bottom of the plate. The degree of methyl ^14C-thymidine incorporation was quantified on a Packard Top Count.

A375 malignant melanoma = experiment: Inhibition of Cell Proliferation (14C-thymidine incorporation), A375; assay type: cell-based; settings: Homo sapiens, A-375, A375 cell line
Procedure: as §3

HCT-116 colon carcinoma = experiment: Inhibition of Cell Proliferation (14C-thymidine incorporation), HCT-116; assay type: cell-based; settings: Homo sapiens, HCT-116 cell line
Procedure: as §3

[9] = system: PC-3 prostate adenocarcinoma; experiment: Inhibition of Cell Proliferation (14C-thymidine incorporation), PC-3; assay type: cell-based; settings: Homo sapiens, PC-3 cell line
Procedure: as §3

FGF-R2 = FGF-R2 (Homo sapiens, UniProt P21802); experiment: Kinase Selectivity Assay FGF-R2; assay type: biochemical; settings: Tables 2a-2k
Sequence of FGF-R2 (P21802 22-821, species assumed): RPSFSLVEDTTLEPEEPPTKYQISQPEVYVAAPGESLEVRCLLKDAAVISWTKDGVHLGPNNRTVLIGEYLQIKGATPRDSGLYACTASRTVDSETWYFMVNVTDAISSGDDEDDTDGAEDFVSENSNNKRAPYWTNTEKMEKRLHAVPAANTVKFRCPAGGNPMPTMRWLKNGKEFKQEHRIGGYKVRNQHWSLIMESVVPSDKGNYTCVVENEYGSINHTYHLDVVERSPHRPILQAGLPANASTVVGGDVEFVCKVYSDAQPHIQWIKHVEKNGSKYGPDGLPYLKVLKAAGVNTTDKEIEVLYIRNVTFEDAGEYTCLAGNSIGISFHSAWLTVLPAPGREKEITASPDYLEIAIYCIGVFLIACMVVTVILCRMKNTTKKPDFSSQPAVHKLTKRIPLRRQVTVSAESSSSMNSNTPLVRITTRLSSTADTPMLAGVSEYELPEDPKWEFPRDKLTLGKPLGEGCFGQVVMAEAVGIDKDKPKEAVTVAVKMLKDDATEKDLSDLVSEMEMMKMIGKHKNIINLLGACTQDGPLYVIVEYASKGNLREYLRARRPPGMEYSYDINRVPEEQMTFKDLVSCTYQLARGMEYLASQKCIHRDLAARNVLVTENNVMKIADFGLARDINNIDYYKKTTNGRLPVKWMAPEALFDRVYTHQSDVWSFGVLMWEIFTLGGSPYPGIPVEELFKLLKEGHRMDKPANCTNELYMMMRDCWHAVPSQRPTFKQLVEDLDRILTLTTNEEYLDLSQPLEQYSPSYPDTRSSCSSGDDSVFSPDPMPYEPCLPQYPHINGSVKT
Procedure: as §2

[10] = molecular target: T9, VEGF-R (vascular endothelial growth factor receptor-2) (Rattus norvegicus, UniProt O08775); experiment: VEGF-R Screening Assay; assay type: biochemical; settings: read-out: VEGF-R IC50
T9 construct: polyhistidine (6xHIS) (N)
T9 sequence (O08775 786-1343): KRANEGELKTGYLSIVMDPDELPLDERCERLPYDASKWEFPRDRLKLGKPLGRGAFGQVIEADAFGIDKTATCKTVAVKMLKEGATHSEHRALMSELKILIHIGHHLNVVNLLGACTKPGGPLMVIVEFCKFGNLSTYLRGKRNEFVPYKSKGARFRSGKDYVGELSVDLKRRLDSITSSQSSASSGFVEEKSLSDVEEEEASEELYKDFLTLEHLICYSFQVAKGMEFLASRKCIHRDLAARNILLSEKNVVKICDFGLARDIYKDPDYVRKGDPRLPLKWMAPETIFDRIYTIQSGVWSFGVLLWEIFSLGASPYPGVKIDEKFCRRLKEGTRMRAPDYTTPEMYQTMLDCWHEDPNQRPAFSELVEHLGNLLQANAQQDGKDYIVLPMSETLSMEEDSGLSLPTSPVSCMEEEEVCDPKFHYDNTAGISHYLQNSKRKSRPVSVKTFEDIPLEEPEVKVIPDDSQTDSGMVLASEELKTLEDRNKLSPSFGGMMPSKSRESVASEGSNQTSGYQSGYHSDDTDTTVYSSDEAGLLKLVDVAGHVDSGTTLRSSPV

[11] = molecular target: PKC (protein kinase-C), gamma or beta isoform; experiment: Kinase Selectivity Assay PKC; assay type: biochemical, human; settings: Tables 2a-2k
Procedure: as §2
CDK2 in complex with cyclin A is commercially available (Upstate Biotech, Lake Placid, N.Y.). […]

[12] = molecular target: T10, CDK2 in complex with cyclin A (Homo sapiens, UniProt P24941); experiment: Kinase Selectivity Assay CDK2; assay type: biochemical; settings: Table 1
T10 construct: purchased Upstate Biotech
How it was run: as §1

[13] = Kinase Selectivity, Tables 2a-2k, read-out: HER2 Kinase IC50

Sequence of Insulin Receptor Kinase (P06213 980-1352): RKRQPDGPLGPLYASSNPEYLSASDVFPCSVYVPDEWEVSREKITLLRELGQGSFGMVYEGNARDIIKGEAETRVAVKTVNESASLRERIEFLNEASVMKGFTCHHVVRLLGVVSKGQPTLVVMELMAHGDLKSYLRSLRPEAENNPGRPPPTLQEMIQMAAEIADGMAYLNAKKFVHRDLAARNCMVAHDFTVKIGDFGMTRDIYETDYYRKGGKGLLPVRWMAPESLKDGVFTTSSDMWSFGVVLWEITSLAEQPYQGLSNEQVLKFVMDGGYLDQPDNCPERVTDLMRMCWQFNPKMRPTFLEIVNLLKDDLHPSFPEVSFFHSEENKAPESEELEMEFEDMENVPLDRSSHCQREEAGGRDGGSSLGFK

Structure (SMILES) | IC50 (Insulin Receptor Kinase) [nM] | IC50 (Protein Kinase A) [nM] | IC50 [1] [nM] | IC50 [2] [nM] | IC50 [3] [nM] | IC50 [4] [nM] | IC50 [5] [nM] | IC50 [6] [nM] | IC50 [7, 13] [nM] | IC50 ([7]; Table 1, read-out: HER2 IC50) [nM] | IC50 [8] [nM] | IC50 (A375 malignant melanoma) [nM] | IC50 (HCT-116 colon carcinoma) [nM] | IC50 [9] [nM] | IC50 (FGF-R2) [nM] | IC50 ([10]; Kinase Selectivity, Tables 2a-2k) [nM] | IC50 ([10]; Table 1) [nM] | IC50 [11] [nM] | IC50 [12] [nM]
CNS(=O)(=O)c1ccc(Nc2nc(N)n(C(=O)c3sc(C)cc3C)n2)cc1 [Cpd 83, 4-[[5-amino-1-[(3,5-dimethyl-2-thienyl)carbonyl]-1H-1,2,4-triazol-3-yl]amino]-N-methyl-benzenesulfonamide] | > 10000 | > 100000 | 275 | > 100000 | > 100000 | 7 | > 100000 | 113 | 13 | 13 | 122 | 556 | 192 | 12 | 22 |  |  |  | 
Cc1cc(C)c(C(=O)n2nc(Nc3ccc(-n4ccnc4)cc3)nc2N)s1 [Cpd 92, 1-[(3,5-dimethyl-2-thienyl)carbonyl]-N^3-[4-(1H-imidazol-1-yl)phenyl]-1H-1,2,4-triazole-3,5-diamine] | 3080 | > 100000 | > 10000 | > 100000 | 19700 | 21 | > 100000 | 282 |  |  | 269 |  |  | 1120 | 242 |  |  |  | 
Cc1ccsc1C(=O)n1nc(Nc2ccc(-n3cncn3)cc2)nc1N [Cpd 99, 1-[(3-methyl-2-thienyl)carbonyl]-N^3-[4-(1H-1,2,4-triazol-1-yl)phenyl]-1H-1,2,4-triazole-3,5-diamine] | > 100000 |  | > 1000 | > 100000 | > 100000 | 30 | > 100000 | 385 |  |  | 3350 |  |  | 1690 |  | 98 | 98 | > 100000 | 
Cc1ccsc1C(=O)n1nc(Nc2ccc(NS(C)(=O)=O)cc2)nc1N [Cpd 109] | 2760 | > 100000 | 1180 | > 10000 | > 100000 | 39 | > 10000 | 413 |  |  | 479 |  | 51 | 307 | 244 |  |  |  | 21
CCc1ccc(C(=O)n2nc(Nc3ccc(NS(C)(=O)=O)cc3)nc2N)s1 [Cpd 110] | 53 | > 100000 | 192 | > 5000 | > 100000 | 8 | 8750 | 285 | 6 | 5.5 | 237 | 239 | 187 |  | 153 |  |  |  | 5
CCc1ccc(C(=O)n2nc(Nc3ccc(S(=O)(=O)Nc4ccccn4)cc3)nc2N)s1 [Cpd 119] |  | > 100000 | 757 | > 100000 | > 100000 | 6 | > 100000 | > 10000 | 1000 | ~1000 |  |  |  |  |  |  |  | > 100000 | 3

Reference: patent US6924302B2, “Substituted triazole diamine derivatives as kinase inhibitors” (Ortho McNeil Pharmaceutical, Inc., priority 2000, dated 2005)
